Measured values reported in article PMC5457276, “Influence of Amphibian Antimicrobial Peptides and Short Lipopeptides on Bacterial Biofilms Formed on Contact Lenses” (Materials, 2016).
Where two headings read alike, the source gives them in different places. Where a SMILES comes first, the peptide text is derived from it. Where no end group is shown, it is not given here. The star is where a group is joined. Palmitoyl = CCCCCCCCCCCCCCCC(=O)*

How the values were obtained:
[1] = system: biofilms formed by Gram-positive bacteria on contact lenses; assay: Biofilm assay on contact lenses (MBEC), summary over Gram-positive strains; assay type: cell-based
Protocol: (§1) All selected strains were obtained from the Polish Collection of Microorganisms (Polish Academy of Science, Wroclaw, Poland). Four Gram-positive and three Gram-negative strains linked with CL-related infections lenses were tested (Table 5). The microorganisms were cultured in a Mueller Hinton Broth II (MHB, Biocorp, Warsaw, Poland) overnight, at 37 °C.
(§2) The CL and CL solutions used are commercially available. One-day CL (1-Day Acuvue Moist) containing Etafilcon A were obtained from Johnson and Johnson Vision Care (Jacksonsville, FL, USA). Four popular CL solutions were also tested (Table 6).
(§3) Biofilms of strains related with ocular infections were cultured on CL placed in polystyrene 24-well plates (Orange Scientific, Braine-l’Alleud, Belgium). Biomaterials were incubated at 37 °C in bacterial suspension in the Mueller Hinton Broth II (Biocorp, Warsaw, Poland) at initial inoculums of ca. 5 × 10^5 CFU/mL. After 24 h of incubation all of the CL were rinsed three times with a sterile phosphate buffer (AppliChem, Darmstadt, Germany). The lenses were then transferred into new wells with fresh MHB II. One-day biofilms were exposed to a pre-determined range of peptides concentration. […] Anti-biofilm activity of selected peptides was visualized using a cell-viability reagent, Resazurin (Sigma Aldrich, St. Louis, MO, USA). Upon contact with living cells the dye is metabolized by bacterial dehydrogenases resulting in the reduction of the blue resazurin to a pink resorufin. Positive controls contained CL immersed in bacterial suspensions without antimicrobials, while CL in a sterile culture medium served as negative controls. The minimum biofilm eradication concentration (MBEC) was read after a one-hour incubation with Resazurin (final concentration per sample = 0.005%) MBEC was determined as the lowest concentration at which the reduction of resazurin was lower or equal (10% ± 0.5%) as compared to positive (100%) and negative (0%) controls. All experiments were performed in triplicate.

[2] = system: HaCaT cells; conditions: cited from earlier work
Description: Our data reveal that AMPs might be promising antibacterial additives to CL solutions. However there are certain limitations and issues which need to be considered. The long-time stability of compounds in a water solution needs to be examined, but first of all the evaluation of toxicity towards human eye cells needs to be carried out. In the previous study tested amphibian peptides turned out to be safe towards HaCaT cells at their microbiologically-active concentrations. […] Considering the potenti ...

[3] = system: Staphylococcus epidermidis ATCC 14990; assay type: cell-based; conditions: S. epidermidis; same MIC in μM (in brackets); broth microdilution, MHB II, overnight at 37 °C, triplicate
Protocol: as §1
(§4) Peptide susceptibility tests on the reference bacterial strains were performed with the following procedures recommended by the Clinical and Laboratory Standard Institute (CLSI). The activity of five peptides was tested on the Mueller Hinton Broth II (Biocorp, Warsaw, Poland) using broth microdilution method on polystyrene 96-well plates (Kartell, Noviglio, Italy). […] The plates were incubated overnight at 37 °C. MIC was assumed as the lowest concentration at which bacterial growth was no longer visible. All experiments were performed in triplicate.

[4] = system: Escherichia coli ATCC 25922; assay type: cell-based; conditions: E. coli; same MIC in μM (in brackets); broth microdilution, MHB II, overnight at 37 °C, triplicate
Protocol: as §1, §4

[5] = system: Staphylococcus aureus ATCC 25923; assay type: cell-based; conditions: S. aureus; same MIC in μM (in brackets); broth microdilution, MHB II, overnight at 37 °C, triplicate
Protocol: as §1, §4

[6] = system: Pseudomonas aeruginosa ATCC 9027; assay type: cell-based; conditions: P. aeruginosa; same MIC in μM (in brackets); broth microdilution, MHB II, overnight at 37 °C, triplicate
Protocol: as §1, §4

[7] = system: Streptococcus pyogenes PCM 465; assay type: cell-based; conditions: S. pyogenes; same MIC in μM (in brackets); broth microdilution, MHB II, overnight at 37 °C, triplicate
Protocol: as §1, §4

[8] = system: Streptococcus pneumoniae ATCC 49619; assay type: cell-based; conditions: S. pneumoniae; same MIC in μM (in brackets); broth microdilution, MHB II, overnight at 37 °C, triplicate
Protocol: as §1, §4

[9] = system: Streptococcus pneumoniae ATCC 49619 biofilm on contact lenses; assay: Biofilm assay on contact lenses (MBEC, resazurin); assay type: cell-based; conditions: S. pneumoniae, triplicate
Protocol: as §1, §2, §3

[10] = system: Streptococcus pyogenes PCM 465 biofilm on contact lenses; assay: Biofilm assay on contact lenses (MBEC, resazurin); assay type: cell-based; conditions: S. pyogenes, triplicate
Protocol: as §1, §2, §3

[11] = system: Staphylococcus aureus ATCC 25923 biofilm on contact lenses; assay: Biofilm assay on contact lenses (MBEC, resazurin); assay type: cell-based; conditions: S. aureus, triplicate
Protocol: as §1, §2, §3

[12] = system: Staphylococcus epidermidis ATCC 14990 biofilm on contact lenses; assay: Biofilm assay on contact lenses (MBEC, resazurin); assay type: cell-based; conditions: S. epidermidis, triplicate
Protocol: as §1, §2, §3

[13] = system: Escherichia coli ATCC 25922 biofilm on contact lenses; assay type: cell-based; conditions: for Concentration eradicating E. coli biofilms (MBEC): ATCC 25922, 24 h; for Minimum biofilm eradication concentration (reduction of resazurin ≤10% ± 0.5%): E. coli, triplicate
Protocol: as §1, §2, §3

[14] = system: Pseudomonas aeruginosa ATCC 9027 biofilm on contact lenses; assay type: cell-based; conditions: for Minimum biofilm eradication concentration (reduction of resazurin ≤10% ± 0.5%): P. aeruginosa, triplicate; for Concentration eliminating P. aeruginosa from the lens surface (MBEC): ATCC 9027, 24 h
Protocol: as §1, §2, §3

[15] = system: planktonic bacteria, all tested strains; assay: Minimum inhibitory concentration, summary over all tested strains; assay type: cell-based; conditions: summary of Table 1
Protocol: as §1, §4

[16] = 25 °C, one-day biofilm on contact lens (Etafilcon A), 24 h exposure in MHB II, resazurin read-out
[17] = 25 °C, same MBEC in μM (in brackets), biofilm on contact lens, 24 h exposure
[18] = 37 °C, one-day biofilm on contact lens (Etafilcon A), 24 h exposure in MHB II, resazurin read-out
[19] = 37 °C, same MBEC in μM (in brackets), biofilm on contact lens, 24 h exposure

Molecule | Minimum inhibitory concentration [3] | Minimum inhibitory concentration [4] | Minimum inhibitory concentration [5] | Minimum inhibitory concentration [6] | Minimum inhibitory concentration [7] | Minimum inhibitory concentration [8] | Minimum biofilm eradication concentration (reduction of resazurin ≤10% ± 0.5%) [9, 16] [µg/mL] | Minimum biofilm eradication concentration (reduction of resazurin ≤10% ± 0.5%) [9, 17] | Minimum biofilm eradication concentration (reduction of resazurin ≤10% ± 0.5%) [9, 18] [µg/mL] | Minimum biofilm eradication concentration (reduction of resazurin ≤10% ± 0.5%) [9, 19] | Minimum biofilm eradication concentration (reduction of resazurin ≤10% ± 0.5%) [10, 16] [µg/mL] | Minimum biofilm eradication concentration (reduction of resazurin ≤10% ± 0.5%) [10, 17] | Minimum biofilm eradication concentration (reduction of resazurin ≤10% ± 0.5%) [10, 18] [µg/mL] | Minimum biofilm eradication concentration (reduction of resazurin ≤10% ± 0.5%) [10, 19] | Minimum biofilm eradication concentration (reduction of resazurin ≤10% ± 0.5%) [11, 16] [µg/mL] | Minimum biofilm eradication concentration (reduction of resazurin ≤10% ± 0.5%) [11, 17] | Minimum biofilm eradication concentration (reduction of resazurin ≤10% ± 0.5%) [11, 18] [µg/mL] | Minimum biofilm eradication concentration (reduction of resazurin ≤10% ± 0.5%) [11, 19] | Minimum biofilm eradication concentration (reduction of resazurin ≤10% ± 0.5%) [12, 16] [µg/mL] | Minimum biofilm eradication concentration (reduction of resazurin ≤10% ± 0.5%) [12, 17] | other results
CCCCCCCCCCCCCCCC(=O)N[C@@H](CCCCN)C(=O)N[C@@H](CCCCN)C(N)=O [Palm-KK-NH2] | (5.4) μM | (10.8) μM | (10.8) μM | (21.7) μM | (21.7) μM | (10.8) μM | 64 | (86.6) μM | 64 | (86.6) μM | 32 | (43.3) μM | 512 | (693.0) μM | 32 | (43.3) μM | 64 | (86.6) μM | 32 | (43.3) μM | Concentrations eradicating biofilms formed by Gram-positive bacteria (MBEC) ([1]; at 37 °C): 32 to 512 µg/mL; Concentrations eradicating biofilms formed by Gram-positive bacteria (MBEC) ([1]; printed "below 25 °C"): 32 to 64 µg/mL; Toxicity towards HaCaT cells / human keratinocytes (in words) [2]: high toxicity; Minimum biofilm eradication concentration (reduction of resazurin ≤10% ± 0.5%) [12, 18]: 32 µg/mL; Minimum biofilm eradication concentration (reduction of resazurin ≤10% ± 0.5%) [12, 19]: (43.3) μM; Concentration eradicating E. coli biofilms (MBEC) [13]: 256 µg/mL; Minimum biofilm eradication concentration (reduction of resazurin ≤10% ± 0.5%) [13, 16]: 256 µg/mL; Minimum biofilm eradication concentration (reduction of resazurin ≤10% ± 0.5%) [13, 17]: (346.5) μM; Minimum biofilm eradication concentration (reduction of resazurin ≤10% ± 0.5%) [13, 18]: 256 µg/mL; Minimum biofilm eradication concentration (reduction of resazurin ≤10% ± 0.5%) [13, 19]: (346.5) μM; Minimum biofilm eradication concentration (reduction of resazurin ≤10% ± 0.5%) [14, 16]: >512 µg/mL; Minimum biofilm eradication concentration (reduction of resazurin ≤10% ± 0.5%) [14, 17]: (>693.0) μM; Minimum biofilm eradication concentration (reduction of resazurin ≤10% ± 0.5%) [14, 18]: >512 µg/mL; Minimum biofilm eradication concentration (reduction of resazurin ≤10% ± 0.5%) [14, 19]: (>693.0) μM
CCCCCCCCCCCCCCCC(=O)N[C@@H](CCCNC(=N)N)C(=O)N[C@@H](CCCNC(=N)N)C(N)=O [Palm-RR-NH2] (Palmitoyl-Arg-Arg-NH2) | (5.0) μM | (20.1) μM | (10.1) μM | (40.3) μM | (20.1) μM | (5.0) μM | 64 | (80.5) μM | 32 | (40.3) μM | 128 | (161.0) μM | >512 | (>644.1) μM | 128 | (161.0) μM | 256 | (322.1) μM | 64 | (80.5) μM | Minimum biofilm eradication concentration (reduction of resazurin ≤10% ± 0.5%) [12, 18]: 32 µg/mL; Minimum biofilm eradication concentration (reduction of resazurin ≤10% ± 0.5%) [12, 19]: (40.3) μM; Minimum biofilm eradication concentration (reduction of resazurin ≤10% ± 0.5%) [13, 16]: 256 µg/mL; Minimum biofilm eradication concentration (reduction of resazurin ≤10% ± 0.5%) [13, 17]: (322.1) μM; Minimum biofilm eradication concentration (reduction of resazurin ≤10% ± 0.5%) [13, 18]: 512 µg/mL; Minimum biofilm eradication concentration (reduction of resazurin ≤10% ± 0.5%) [13, 19]: (644.1) μM; Minimum biofilm eradication concentration (reduction of resazurin ≤10% ± 0.5%) [14, 16]: >512 µg/mL; Minimum biofilm eradication concentration (reduction of resazurin ≤10% ± 0.5%) [14, 17]: (>644.1) μM; Minimum biofilm eradication concentration (reduction of resazurin ≤10% ± 0.5%) [14, 18]: >512 µg/mL; Minimum biofilm eradication concentration (reduction of resazurin ≤10% ± 0.5%) [14, 19]: (>644.1) μM
FLPLIGRVLSGIL-NH2 [Temporin A, reference compound] | – | – | – | – | – | – | – | – | – | – | – | – | – | – | – | – | – | – | – | – | Concentration eliminating P. aeruginosa from the lens surface (MBEC) [14]: 512 µg/mL
GIGKFLKKAKKFGKAFVKILKK-NH2 [Pexiganan] | – | – | – | – | – | – | – | – | – | – | – | – | – | – | – | – | – | – | – | – | Concentrations inhibiting bacterial growth (MIC), range over all tested strains [15]: 1 to 8 µg/mL
GLFDVIKKVASVIGGL-NH2 [Citropin 1.1, reference compound] | – | – | – | – | – | – | – | – | – | – | – | – | – | – | – | – | – | – | – | – | MBEC values, range over Gram-positive strains ([1]; both temperatures (25 °C and 37 °C)): 16 to 64 µg/mL; Concentration eradicating E. coli biofilms (MBEC) [13]: 128 to 256 µg/mL; Concentration eliminating P. aeruginosa from the lens surface (MBEC) [14]: 512 µg/mL
